Assay results taken from patent US20210347709A1, “RADIOFLUORINATED GPC3-BINDING PEPTIDES FOR PET IMAGING OF HEPATOCELLULAR CARCINOMA” (University of Southern California, priority 2020, published 2021).
Where two headings read alike, the source gives them in different places.

Legend:
[1] = Measurement of lipophilicity (Log P), 1-octanol/PBS partition; assay type: physicochemical; settings: 1-octanol / PBS pH 7.4, mean ± SD, n = 4
Procedure: Measurement of Lipophilicity (Log P). Approximately 185 kBq of Al[^18F]F-GP2076 or Al[^18F]F-GP2633 in 0.5 ml of phosphate-buffered saline (PBS) (pH 7.4) was mixed with 0.5 ml of 1-octanol. The mixture was vigorously shaken for 1 min, and then centrifuged at 12,000 rpm for 5 min to partition the organic and aqueous layers. Aliquots of 0.2 ml each layer were taken and the radioactivity was determined by gamma counting (GC-1200, USTC Chuangxin Co. Ltd. Zonkia Branch, China). The distribution coefficient P was calculated as the ratio of radioactivity in the organic phase to that in the aqueous phase. The experiment was carried out in quadruplicate.

[2] = In vivo metabolic stability in HepG2 tumor-bearing mice; settings: 1 h after intravenous injection
Procedure: In Vivo Metabolic Stability. HepG2 tumor-bearing mice (n=3/group) were intravenously injected with 5.55 MBq of Al[^18F]F-GP2076 or Al[^18F]F-GP2633. At 1 h after the injection, the mice were euthanized, and the HepG2 tumor, blood, liver, kidneys, and urine samples were collected. Briefly, the blood sample was immediately centrifuged for 5 min at 12,000 rpm. The HepG2 tumor, liver, and kidneys were homogenized and then centrifuged for 5 min at 12,000 rpm. The supernatant from each sample was passed through an ultrafiltration tube (Millipore, USA) and then centrifuged for 10 min at 12,000 rpm. The urine sample was diluted with 100 μl of PBS. The filtrate from each sample was injected into analytic HPLC. The HPLC eluents were collected with a fraction collector (one fraction/30 sec), and the radioactivity of each fraction was measured by gamma counting.

[3] = tested on: GPC3-positive HepG2 tumor; test: MicroPET/CT imaging and biodistribution, HepG2 tumor model; assay type: in vivo, nude mice; settings: for Tumor-to-liver (T/L) uptake ratio / Tumor-to-muscle (T/M) uptake ratio / Tumor-to-kidneys (T/K) uptake ratio: HepG2 (GPC3+) tumor bearing mice; for Kidneys uptake / Liver uptake / Tumor uptake: HepG2 (GPC3+) tumor model; for Kidneys uptake / Liver uptake / Tumor uptake / defluorination in vivo (from low bone uptake): PET; for Tumor uptake: decay-corrected; for clearance / excretion route from the mouse body: as visualized by PET images
Procedure: MicroPET/CT Imaging and Biodistribution. MicroPET/CT scans were carried out using a Siemens Inveon PET/CT scanner (Siemens, Germany). Tumor-bearing mice (n=3/group) were intravenously injected with 5.55 MBq of Al[^18F]F-GP2076 or Al[^18F]F-GP2633 under isoflurane anesthesia. A ten-minute static PET scan for each animal was acquired at 30, 60, and 120 min after the injection. 3-Dimensional ordered subset expectation maximization (3D-OSEM) algorithm was used for the PET reconstruction, and CT was applied for attenuation correction. Detailed procedures for the microPET/CT imaging and biodistribution are provided in ESM.
(§1) All animal experiments were conducted according to the guideline of the Nanfang Hospital Animal Ethics Committee at the Southern Medical University. Male or female BALB/c nude mice (about 4-6 weeks old) were obtained from the Laboratory Animal Center at Southern Medical University. The HepG2 and McA-RH7777 HCC xenografts were established by subcutaneous injection of 1×10^6 tumor cells into the left shoulder of nude mice. The animals were used for in vivo studies when the tumors reached a size of 0.5-1 cm in diameter (4-6 weeks after inoculation).
Inveon Research Workplace (IRW) 3.0 software (Siemens, Germany) was used to measure the regions of interest (ROIs) determined by superimposing the ellipsoid volume of interest (VOI) on the target tissues. The radioactivity concentrations were measured by the mean pixel intensity within each VOI and converted to dose/ml using a calibration constant. Assuming the tissue density of 1 g/ml, the ROI was then converted to dose per gram and normalized as the percent injected dose per gram (% ID/g). Tumor-to-nontarget uptake ratios, including tumor-to-muscle (T/M), tumor-to-liver (T/L), and tumor-to-kidneys (T/K) ratios, were calculated by dividing the radioactivity uptake in tumor by that in the corresponding normal tissue or organ.

[4] = Ex vivo biodistribution in HepG2 tumor bearing nude mice; settings: both sexes, BALB/c nude, mouse, iv, 1.85 MBq, total radioactivity, 1 h post-injection, gamma counting
Procedure: as §1
(§2) Ex vivo biodistribution was evaluated at 60 min after the tail vein injection of 1.85 MBq of Al[^18F]F-GP2076 or Al[^18F]F-GP2633. Mice were euthanized and dissected. Major tissues and organs were collected and weighed wet. The radioactivity in the tissues and organs was measured using a gamma counter. The results were presented as % ID/g. For each animal, the radioactivity of the tissue and organ samples was calibrated with a known aliquot of the injected activity. Mean uptake (% ID/g) for a group of animals was calculated with standard deviations.

HepG2 tumor = test: as above; settings: 1 h post-injection, gamma counting
Procedure: as §1, §2

[5] = HepG2 tumor, read-out: HepG2 Tumor uptake, ex vivo biodistribution
[6] = blood, read-out: Blood uptake, ex vivo biodistribution
[7] = bone, read-out: Bone uptake, ex vivo biodistribution
[8] = brain, read-out: Brain uptake, ex vivo biodistribution
[9] = heart, read-out: Heart uptake, ex vivo biodistribution
[10] = kidneys, read-out: Kidneys uptake, ex vivo biodistribution
[11] = liver, read-out: Liver uptake, ex vivo biodistribution
[12] = muscle, read-out: Muscle uptake, ex vivo biodistribution

Row | logP [1] | percentage of parent F-18 labeled peptide in HepG2 tumor [2] | percentage of parent F-18 labeled peptide in blood [2] | percentage of parent F-18 labeled peptide in kidneys [2] | percentage of parent F-18 labeled peptide in liver [2] | percentage of parent F-18 labeled peptide in urine [2] | Tumor-to-liver (T/L) uptake ratio ([3]; 30 min) | Tumor-to-muscle (T/M) uptake ratio ([3]; 30 min) | Tumor-to-kidneys (T/K) uptake ratio ([3]; 60 min) | Tumor-to-liver (T/L) uptake ratio ([3]; 60 min) | Tumor-to-muscle (T/M) uptake ratio ([3]; 60 min) | Tumor-to-liver (T/L) uptake ratio ([3]; 120 min) | Tumor-to-muscle (T/M) uptake ratio ([3]; 120 min) | Kidneys uptake ([3]; 30 min) | Liver uptake ([3]; 30 min) | Tumor uptake ([3]; 30 min) | Kidneys uptake ([3]; 60 min) | Liver uptake ([3]; 60 min) | Tumor uptake ([3]; 60 min) | Kidneys uptake ([3]; 120 min) | Compound | other results
1 | -2.1 ± 0.07 | 97.69±2.51% | 96.68±1.55% | 54.94±2.12% | 96.06±0.54% | 3.31±0.20% | 0.43±0.06 | 5.56±1.36 | 0.31±0.04 | 0.59±0.14 | 5.13±2.08 | 0.46±0.40 | 2.68±0.29 | 9.83±3.69 % ID/g | 5.10±0.53 % ID/g | 2.20±0.36 % ID/g | 7.03±2.32 % ID/g | 3.70±0.98 % ID/g | 2.13±0.55 % ID/g | 2.27 ± 1.07 % ID/g | CC(C)C[C@H](NC(=O)[C@H](CCCNC(=N)N)NC(=S)Nc1ccc(CC2CN(CC(=O)O)CCN(CC(=O)O)CCN2CC(=O)O)cc1)C(=O)N[C@@H](CC(N)=O)C(=O)N[C@H](C(=O)NCC(=O)NCC(=O)N[C@H](C(=O)N[C@@H](Cc1ccc(O)cc1)C(=O)N[C@@H](Cc1ccccc1)C(=O)N[C@@H](CC(C)C)C(=O)N[C@H](C(=O)N[C@H](C(=O)N[C@@H](CCCNC(=N)N)C(=O)N[C@@H](CCC(N)=O)C(=O)O)[C@@H](C)O)[C@@H](C)O)[C@@H](C)O)C(C)C (single isomer, unassigned) [Al[^18F]F-GP2076] | Liver uptake ([3]; 120 min): 2.07 ± 0.96 % ID/g; Tumor uptake ([3]; 120 min): 0.73±0.32 % ID/g; defluorination in vivo (from low bone uptake) [3]: did not occur; clearance / excretion route from the mouse body [3]: primarily through the hepatic pathway; tissue uptake at 1 h [4, 5]: 1.13 ± 0.02 %ID/g; tissue uptake at 1 h [4, 6]: 0.36 ± 0.17 %ID/g; tissue uptake at 1 h [4, 7]: 0.29 ± 0.13 %ID/g; tissue uptake at 1 h [4, 8]: 0.1 ± 0.1 %ID/g; tissue uptake at 1 h [4, 9]: 0.36 ± 0.15 %ID/g; tissue uptake at 1 h [4, 10]: 6.37 ± 1.45 %ID/g; tissue uptake at 1 h [4, 11]: 2.3 ± 0.56 %ID/g; tissue uptake at 1 h [4, 12]: 0.24 ± 0.07 %ID/g; HepG2 Tumor uptake, ex vivo biodistribution (HepG2 tumor): 1.13±0.02 % ID/g; Liver uptake, ex vivo biodistribution (HepG2 tumor): 2.30±0.56 % ID/g
2 | -2.42 ± 0.09 | 93.01±2.98% | 93.57±1.38% | 7.70±2.56% | 92.95±2.77% | No parent | 1.77 ±0.20 | 9.11±0.79 | 0.09±0.01 | 2.00±0.18 | 12.17±0.62 | 1.28±0.25 | 6.20±1.80 | 39.40±0.98 % ID/g | 1.80±0.36 % ID/g | 3.13±0.31 % ID/g | 36.86±2.05 % ID/g | 1.70±0.26 % ID/g | 3.37±0.35 % ID/g | 29.27 ± 3.31 % ID/g | CC(C)C[C@H](NC(=O)[C@H](CCCNC(=N)N)NC(=O)[C@H](CC(N)=O)NC(=O)[C@H](CC(=O)O)NC(=O)[C@H](CCCNC(=N)N)NC(=O)CNC(=O)CNC(=O)CNC(=S)Nc1ccc(CC2CN(CC(=O)O)CCN(CC(=O)O)CCN2CC(=O)O)cc1)C(=O)N[C@@H](CC(N)=O)C(=O)N[C@H](C(=O)NCC(=O)NCC(=O)N[C@H](C(=O)N[C@@H](Cc1ccc(O)cc1)C(=O)N[C@@H](Cc1ccccc1)C(=O)N[C@@H](CC(C)C)C(=O)N[C@H](C(=O)N[C@H](C(=O)N[C@@H](CCCNC(=N)N)C(=O)N[C@@H](CCC(N)=O)C(=O)O)[C@@H](C)O)[C@@H](C)O)[C@@H](C)O)C(C)C (single isomer, unassigned) [Al[^18F]F-GP2633] | Tumor-to-kidneys (T/K) uptake ratio ([3]; 30 min): 0.08 ± 0.01; Tumor-to-kidneys (T/K) uptake ratio ([3]; 120 min): 0.04 ± 0.01; Liver uptake ([3]; 120 min): 1.04 ± 0.20 % ID/g; Tumor uptake ([3]; 120 min): 1.30±0.17 % ID/g; defluorination in vivo (from low bone uptake) [3]: did not occur; clearance / excretion route from the mouse body [3]: predominantly through the renal system; tissue uptake at 1 h [4, 5]: 1.96 ± 0.29 %ID/g; tissue uptake at 1 h [4, 6]: 0.45 ± 0.12 %ID/g; tissue uptake at 1 h [4, 7]: 0.36 ± 0.08 %ID/g; tissue uptake at 1 h [4, 8]: 0.12 ± 0.12 %ID/g; tissue uptake at 1 h [4, 9]: 0.39 ± 0.27 %ID/g; tissue uptake at 1 h [4, 10]: 37 ± 4.7 %ID/g; tissue uptake at 1 h [4, 11]: 0.97 ± 0.07 %ID/g; tissue uptake at 1 h [4, 12]: 0.31 ± 0.05 %ID/g; HepG2 Tumor uptake, ex vivo biodistribution (HepG2 tumor): 1.96±0.29 % ID/g; Liver uptake, ex vivo biodistribution (HepG2 tumor): 0.97±0.07 % ID/g
